Test results from the supplement of paper PMC10307832.

Legend:
Test in all cases: relative viability (nuclei count vs DMSO), 5 days (fraction); higher = more cells survive
[1] = compound: O=c1cc(-c2cccc3c2Sc2ccccc2S3)oc(N2CCOCC2)c1
Summary of the method: (§1)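 On vehicle-anchored 1536-well plates, lung cancer cell lines held overnight at 37 °C were pinned with five library-drug doses (not always all listed) spaced by √10. With no medium change over 5 days, they were then fixed, permeabilised and Hoechst-stained in one step and imaged at 4×. MetaXpress counted nuclei, and viability is the median across plates of treated-well over vehicle-well nuclei. Acceptance needed control CV below 25% and at least one doubling.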

[2] = compound: CCN(CC)CCCCNc1ncc2cc(-c3cc(OC)cc(OC)c3)c(NC(=O)NC(C)(C)C)nc2n1
Summary of the method: as §1

[3] = compound: C1COCCN1C2=CC(=O)C3=C(O2)C(=CC=C3)C4=CC=CC5=C4SC6=CC=CC=C56
Summary of the method: as §1

PRIMA-1MET = compound: COCC1(CO)C(=O)C2CCN1CC2 [PRIMA-1MET]
Summary of the method: as §1

Zibotentan = compound: COc1nc(C)cnc1NS(=O)(=O)c1cccnc1-c1ccc(-c2nnco2)cc1 [Zibotentan]
Summary of the method: as §1

| Cell Line | relative viability ([1]; 0.08 µM) | relative viability ([1]; 0.253 µM) | relative viability ([1]; 0.8 µM) | relative viability ([1]; 2.53 µM) | relative viability ([1]; 8 µM) | relative viability ([2]; 0.01 µM) | relative viability ([2]; 0.03162 µM) | relative viability ([2]; 0.1 µM) | relative viability ([2]; 0.3162 µM) | relative viability ([2]; 1 µM) | relative viability ([3]; 0.01 µM) | relative viability ([3]; 0.03162 µM) | relative viability ([3]; 0.1 µM) | relative viability ([3]; 0.3162 µM) | relative viability ([3]; 1 µM) | relative viability (PRIMA-1MET; 0.2 µM) | relative viability (PRIMA-1MET; 0.6325 µM) | relative viability (PRIMA-1MET; 2 µM) | relative viability (PRIMA-1MET; 6.325 µM) | relative viability (PRIMA-1MET; 20 µM) | relative viability (Zibotentan; 0.08 µM) | relative viability (Zibotentan; 0.253 µM) | relative viability (Zibotentan; 0.8 µM) | relative viability (Zibotentan; 2.53 µM) |
| --- | --- | --- | --- | --- | --- | --- | --- | --- | --- | --- | --- | --- | --- | --- | --- | --- | --- | --- | --- | --- | --- | --- | --- | --- |
| CAL-12T | 0.94 | 1.06 | 0.952 | 0.955 | 0.883 | 0.901 | 1.03 | 1.04 | 1.04 | 0.974 | 0.924 | 0.991 | 1.03 | 1.05 | 0.854 | 0.946 | 0.924 | 1.02 | 0.934 | 0.352 | 0.965 | 0.918 | 0.942 | 1.03 |
| Calu-6 | 1 | 1.1 | 1.05 | 0.955 | 0.924 | 0.989 | 1.1 | 1.11 | 1.11 | 1.02 | 1.05 | 1.06 | 1.08 | 1.01 | 1.05 | 1.06 | 0.977 | 0.97 | 0.948 | 0.812 | 1.04 | 0.932 | 0.979 | 1 |
| NCI-H647 | 0.937 | 1.2 | 1.02 | 0.855 | 1.01 | 0.94 | 1 | 1.04 | 1.1 | 0.903 | 0.911 | 0.918 | 0.867 | 1.05 | 0.986 | 1.11 | 0.824 | 0.783 | 1.04 | 0.762 | 0.964 | 0.83 | 0.887 | 0.993 |
| H3255 | 0.929 | 0.917 | 0.994 | 0.994 | 1.19 | 0.999 | 0.938 | 1.07 | 1.12 | 0.978 | 0.926 | 0.96 | 0.95 | 1.05 | 0.812 | 0.992 | 0.89 | 0.938 | 0.989 | 0.952 | 0.981 | 1.03 | 1.06 | 0.938 |
| HCC-78 | 0.949 | 1.09 | 0.75 | 0.871 | 1.03 | 0.879 | 0.906 | 1.06 | 1.08 | 0.917 | 1.07 | 0.94 | 0.856 | 0.886 | 0.774 | 1.15 | 0.925 | 0.724 | 1.03 | 0.474 | 1.03 | 0.942 | 0.937 | 0.782 |
| NCI-H596 | 0.947 | 1.08 | 1.04 | 0.916 | 0.979 | 0.973 | 1.06 | 0.992 | 0.915 | 0.858 | 0.999 | 0.984 | 0.916 | 1.02 | 0.939 | 0.981 | 0.875 | 0.857 | 1.14 | 0.224 | 0.842 | 1.01 | 1.07 | 1.12 |
| PC-3 [JPC-3] | 0.99 | 1.05 | 1.02 | 0.943 | 1.08 | 1.1 | 1.02 | 1.12 | 1.23 | 0.911 | 0.965 | 1.01 | 0.91 | 1.03 | 0.977 | 1.16 | 1 | 0.997 | 1.07 | 0.997 | 1.06 | 0.979 | 1.05 | 1.06 |
